Laboratory results published in patent publication US20250270579A1, “PLANTS WITH ALTERED ROOT AND SHOOT ARCHITECTURE AND METHODS FOR OBTAINING AND USING SAME” (IOWA STATE UNIVERSITY RESEARCH FOUNDATION, INC., priority 2024, published 2025).

Key:
maize primary roots [1] = assay: In vivo auxin accumulation assay in dissected primary roots; set-up: species or system Zea mays
Experimental: In vivo auxin transport assays. Auxin accumulation assays were performed as previously described (Strader and Bartel, “The Arabidopsis PLEIOTROPIC DRUG RESISTANCE8/ABCG36 ATP Binding Cassette Transporter Modulates Sensitivity to the Auxin Precursor Indole-3-Butyric Acid,” The Plant Cell 21:1992-2007 (2009), which is hereby incorporated by reference in its entirety). […] Sections were equilibrated in 40 μL of uptake buffer (20 mM MES, 10 mM sucrose, and 0.5 mM CaSO4, pH 5.6) for 30 minutes at room temperature (RT). 40 μL of 50 nM 3H-IAA was added to each sample and incubated at RT for 1 hour. Samples were rinsed 3 times with […] of uptake buffer. 3H-IAA in tissue samples was measured using a scintillation counter as previously described (Strader and Bartel, “The Arabidopsis PLEIOTROPIC DRUG RESISTANCE8/ABCG36 ATP Binding Cassette Transporter Modulates Sensitivity to the Auxin Precursor Indole-3-Butyric Acid,” The Plant Cell 21:1992-2007 (2009), which is hereby incorporated by reference in its entirety). Samples were moved to scintillation vials containing CytoScint (MP Biomedicals) and disintegrations per minute (DPM) were measured using a scintillation counter (Beckman Coulter LS-6500).

ZmPILS6 = assay: Auxin transport assay in yeast expressing ZmPILS6; format: cell-based, Zea mays; details: yeast expressing ZmPILS6 compared to empty vector control
Experimental: Auxin transport assays in yeast. Transport assays of radiolabeled indole-3-acetic acid (^3H-IAA) were performed as previously described (Michniewicz, et al., “Transporter of IBA1 Links Auxin and Cytokinin to Influence Root Architecture,” Developmental Cell 50:599-609.e4 (2019), which is hereby incorporated by reference in its entirety). Briefly, pCC13 was transformed into Saccharomyces cerevisiae strain JBY575. Single yeast colonies were grown in liquid-URA selective media overnight at 30° C. Yeast were resuspended in 0.1M MES (pH 4.6) with 2% dextrose to an OD600 of 5. 100 μL of resuspended cells were added to a 1.5 mL Eppendorf tube and added 100 μL of 50 nM 3H-IAA and incubated at RT for 30 minutes. Yeast cells were centrifuged for 15 seconds before removing the supernatant and washing 3 times with MES solution. Cells were resuspended in 100 μL of MES buffer and ^3H-IAA was measured using a scintillation counter. For each plasmid expressing yeast, 12 biological replicates were statistically analyzed using a t test.

maize primary roots [2] = assay: Auxin response assay (rolled towel), primary root length; format: in vivo, Zea mays; details: pils6-1 and pils6-3 roots compared to W22 and B73, 10 μM IAA
Experimental: Auxin response assays were performed using the rolled towel assay as previously described (Draves, “Maize Seedling Growth and Hormone Response Assays Using the Rolled Towel Method,” Current Protocols 2: e562 (2022), which is hereby incorporated by reference in its entirety) using 20-40 biological replicates per genotype and treatment. Maize kernels were surface sterilized with 6% bleach and planted on germination paper and placed vertically in a 2-L beaker with 600 mL of 0.5×Linsmaier and Skoog (LS) media. Seedlings were grown for 3 days after germination (DAG) and then treated with 10 μM indole-3-acetic acid (IAA) or an equal volume 95% ethanol for 7 additional days.

maize primary roots [3] = assay: Proteomic profiling of maize roots with and without auxin treatment; format: in vivo, Zea mays; details: 10 μM IAA
Experimental: For proteomics analysis, W22 and pils6-1 kernels were surface sterilized and planted in rolled towels as described above. Two days after planting, ungerminated kernels were removed from the assay. Five-day-old seedlings were removed from the rolled towels and floated on 0.5×LS media supplemented with 10 μM IAA in 0.5×LS or an equal volume of 95% ethanol in 0.5×LS for 1 hour. For each biological replicate, total root tissue from 5 seedlings was excised using a scalpel and pooled prior to flash freezing in liquid nitrogen. Three biological replicates were generated per genotype and treatment.
Proteomics. Protein extraction and peptide generation. Protein extraction and peptide digestion was performed as previously described (Song et al., “Heterotrimeric G-Protein-Dependent Proteome and Phosphoproteome in Unstimulated Arabidopsis Roots,” Proteomics 18: e1800323 (2018), which is hereby incorporated by reference in its entirety). Briefly, total protein was extracted from […] of 5-day-old primary root tissue (W22 and pils6-1) using the phenol-FASP method as previously detailed (Song et al., “Assessment and Refinement of Sample Preparation Methods for Deep and Quantitative Plant Proteome Profiling,” Proteomics 18: e1800220 (2018); Song et al., “Quantitative Profiling of Protein Abundance and Phosphorylation State in Plant Tissues Using Tandem Mass Tags” in Plant Proteomics: Methods and Protocols, Methods in Molecular Biology., J. V. Jorrin-Novo, L. Valledor, M. A. Castillejo, M.-D. Rey, Eds., pp. 147-156 (Springer US, 2020), each of which is hereby incorporated by reference in its entirety). […] Peptide amounts were quantified using the Pierce BCA Protein assay kit […]

Row | SMILES | 3H-IAA accumulation in the elongation zone (maize primary roots [1]; pils6-1 roots (absence of ZmPILS6) compared to W22) | 3H-IAA accumulation in the stele (maize primary roots [1]; pils6-1 roots compared to W22) | 3H-IAA accumulation in yeast cells (ZmPILS6) | sensitivity of primary root length to exogenous IAA (maize primary roots [2]) | proteins with altered abundance in response to IAA treatment (maize primary roots [3]; W22 roots, 1 hour) [proteins] | proteins auxin-induced in W22 that are auxin-repressed in pils6-1 (maize primary roots [3]; W22 vs pils6-1 roots) [proteins] | auxin-responsive proteins (maize primary roots [3]; pils6-1 roots, 1 hour) [proteins]
1 | O=C(O)Cc1c[nH]c2ccccc12 [3H-IAA] | hyperaccumulates | hypo-accumulates | significant decrease | – | – | – | –
2 | O=C(O)Cc1c[nH]c2ccccc12 [IAA, indole-3-acetic acid] | – | – | – | less sensitive | 178 | 11 | 9
